Source: publication PMC9863109 (Viruses, 2023)

How the values were obtained:
cynomolgus monkeys = conditions: cynomolgus monkey, in vivo; cited from earlier work
ectromelia virus [1] = conditions: mouse, in vivo; cited from earlier work
[2] = mouse, in vivo
[3] = cynomolgus monkey, in vivo; cited from earlier work
monkeypox virus = conditions: cynomolgus monkey, in vivo; cited from earlier work
ectromelia virus [4] = conditions: mouse, in vivo, po; cited from earlier work
BALB/c mice = conditions: mouse, in vivo; cited from earlier work
[5] = mouse, in vivo; cited from earlier work
NZW rabbits = conditions: rabbit, in vivo; cited from earlier work
in vivo = conditions: both, ICR, mouse
animals = conditions: in vivo, po; cited from earlier work
Wistar rats [6] = conditions: rat, in vivo
[7] = system: monkeypox virus strain V79-1-005; conditions: in vivo, po; cited from earlier work
Wistar rats [8] = conditions: rat, in vivo; remark: listed apart in the source
ICR outbred mice [9] = conditions: mouse, in vivo
[10] = system: monkeypox virus strain V79-1-005; conditions: mouse, in vivo, po; cited from earlier work
[11] = system: Ind-3a variola virus strain; conditions: mouse, in vivo, po; cited from earlier work
ICR outbred mice [12] = conditions: mouse, in vivo; remark: listed apart in the source

Compound: O=C(NN1C(=O)C2C3C=CC(C4CC34)C2C1=O)c1ccc(C(F)(F)F)cc1 (centres unmarked) [ST-246, N-{3,5-dioxo-4-azatetracyclo[5.3.2.0^2,6.0^8,10]dodec-11-en-4-yl}-4-(trifluoromethyl)benzamide]
- pathological processes (cynomolgus monkeys): did not cause any pathological processes
- dose of optimal effectiveness (ectromelia virus [1]): 100 µg/g
- visible adverse reactions to i/v administration [2]: no visible adverse reactions
- absolute oral bioavailability (Fabs) [3]: 31-77%
- effective dose (monkeypox virus): 3 µg/g
- 50% effective dose (ectromelia virus [4]): 5.08 µg/g
- disorders or damage in the animals (BALB/c mice): no disorders or damage
- T1/2 [5]: 2.2 h
- Tmax in serum [5]: 4.5 h
- plasma Cmax [5]: 44000 ng/mL
- pathological effects (NZW rabbits): No pathological effects
- Tmax (in vivo; iv): 0.25 h
- half-life (in vivo; iv): 2 h
- Cmax (in vivo; iv, Cmax): 13200 ng/mL
- Cmax (in vivo; iv, maximum concentration (Cmax) of ST-246 in serum): 13200 ng/mL
- Tmax (in vivo; po): 3 h
- bioavailability (in vivo; po): 12.1%
- half-life (in vivo; po): 3.4 h
- Cmax (in vivo; po, Cmax): 15500 ng/mL
- Cmax (in vivo; po, maximum concentration (Cmax) of ST-246 in serum): 15500 ng/mL
- animal death (animals): did not cause death

Compound: O=C(NNC(=O)C1C2C=CC(C3CC23)C1C(=O)O)c1ccc(C(F)(F)F)cc1 (centres unmarked) [NIOCH-14, 7-({[(4-trifluoromethyl)phenyl]formohydrazido}carbonyl)tricyclo[3.2.2.0^2,4]non-8-en-6-carboxylic acid]
- Absolute bioavailability Fabs [2]: 22.8%
- time of maximum concentration of ST-246 in serum [2]: 15 min
- visible adverse reactions to i/v administration [2]: no visible adverse reactions
- changes in hematological parameters (Wistar rats [6]): no significant changes
- effect on animals' appearance and behavior (Wistar rats [6]): no significant effect
- signs of disease [7]: no signs of disease
- animal death (Wistar rats [8]): did not cause animal death
- effect on hematological parameters (Wistar rats [8]): no significant effect
- 50% effective dose (ectromelia virus [4]): 3.59 µg/g
- WBC differential (ICR outbred mice [9]): remained unchanged
- effect on animals' appearance and behavior (ICR outbred mice [9]): no significant effect
- increase of platelet count vs. control group 1 (ICR outbred mice [9]): 28%
- reduction of WBC count vs. control group 1 (ICR outbred mice [9]): 23%
- virus production in the lungs [10]: significantly reduced virus production in the lungs
- number of infected mice and virus production in the lungs [11]: significantly reduced
- hazard class according to GOST 12.1.007-76 (ICR outbred mice [12]): low-hazard compound
- macroscopic pathomorphological changes in organs (ICR outbred mice [12]): no macroscopic pathomorphological changes
